# Data reported in patent US11325955B2, “Stabilized anti-microbial peptides for the treatment of antibiotic-resistant bacterial infections” (priority 2017, dated 2022).
# Like-named read-outs stand apart in the source and are kept apart here. Positions of bridges follow the written chain, without caps; N, C: chain ends. Non-standard residues stand in square brackets, D forms with d. Residues, ends and D or L forms follow the SMILES beside them. S5 = C=CCCC[C@](C)(N)C(=O)O; Nle = CCCC[C@H](N)C(=O)O
# Columns and labels:
# [1] = test system: primary human renal proximal tubule epithelial cells (pRPTECs)
# Description: In one embodiment, pRPTECs are seeded at a density of 10,000 cells per well on 96 well plates and incubated for 48 hours at 37° C. Cells are then treated with different concentrations of the StAMP and incubated for another 24-to-48 hour period. Cell viability is then determined and/or lactate dehydrogenase (LDH) release is measured.
# Briefly, pRPTECs in complete growth cell medium were seeded in a 96 well plate at a density of 10,000 cells per well and incubated at 37° C. for 48 hours. Complete medium was then removed and replaced with a toxicity assay medium to which various concentrations of StAMP were added. Cells were then further incubated for 24 to 48 hours after which cell medium was collected and assayed for the presence of Lactate Dehydrogenase (LDH) using a Cytotoxicity Detection Kit (LDH) (Roche).
# B cereus = type: cell-based
# Description: (§1) The following microbroth dilution protocol was adapted to determine the minimum inhibitory concentration (MIC) of each peptide. First, Mueller-Hinton broth (MHB) was passed through an anion exchange column to remove polyanionic species and generate refined MHB. […] Briefly, bacterial cells were grown overnight in refined MHB at 37° C. and then diluted and allowed to grow again for several hours. Serial dilutions of peptide stocks in water (10 μl) were prepared using clear round-bottom polypropylene 96-well plates. Then 90 μl of bacteria in refined MHB was added to give a final inoculum of 5×10^5 CFU/ml. The plates were then covered with porous tape to reduce evaporation, and incubated for 20-24 hours at 37° C. The MIC is the minimum peptide concentration at which no visible growth was observed.
# E coli = type: cell-based
# Description: as §1
# P aeruginosa = type: cell-based
# Description: as §1
# S aureus = type: cell-based
# Description: as §1
# A baumannii = type: cell-based
# Description: as §1
# [2] = test system: human red blood cells (RBCs); test: Hemolytic activity assay; type: cell-based; conditions: peptide at 25 μg/ml, 1 hour at 37° C.
# Description: For the determination of hemolytic activity, human blood samples were centrifuged to isolate red blood cells (RBCs), which are then washed and suspended in phosphate-buffered saline to yield a 1% (v/v) suspension. The suspension was then added to serial dilutions of peptide stocks in water in clear round-bottom polypropylene 96-well plates and the plates were incubated for 1 hour at 37° C. After incubation, the plates were centrifuged and the supernatant was isolated to determine the amount of hemoglobin released using a spectrophotometer (570 nm), according to the equation: % Hemolysis=(Treated Absorbance−Untreated Control Absorbance)/(1% Triton-X100 Treated Absorbance−Untreated Control Absorbance). The minimum hemolytic concentration (MHC) is the peptide concentration at which there is less than 1% hemoglobin release.
# [3] = test system: Methicillin-resistant S Aureus; type: cell-based
# Description: as §1
# (§2) StAMPs Mag(i+4)2,15(A9K), Pleu(i+4)1,15(A9K) and Pleu(i+4)1,15 were also then tested against 4 clinical isolates of S. aureus of which two were methicillin-susceptible (MSSA) and two were methicillin-resistant (MRSA) (Table 5).
# [4] = test system: Methicillin-susceptible S Aureus; type: cell-based
# Description: as §1, §2
# [5] = test system: E. coli clinical isolates that harbor the MCR-1 plasmid; type: cell-based
# Description: (§3) StAMPs were screened against a panel of MDR clinical samples obtained from the Antimicrobial Resistance Isolate Bank of the Centers for Disease Control and Prevention (Atlanta, Ga.).
# as §1
# (§4) The first three StAMPs of Table 2 in Example 3 were then tested against 39 clinical isolates of A. baumannii with various degrees of colistin resistance (Table 3, 4).
# [6] = test system: A. baumannii clinical isolates; type: cell-based
# Description: as §3, §1, §4
# [7] = E. coli CDC Bank# 346, contains MCR-1 plasmid
# [8] = E. coli CDC Bank# 349, contains MCR-1 plasmid
compound,measurement,setting,value
"CC(C)[C@@H]1NC(=O)[C@@](C)(NC(=O)[C@H](C)NC(=O)[C@H](CCCCN)NC(=O)CNC(=O)[C@H](Cc2ccccc2)NC(=O)[C@H](CCCCN)NC(=O)[C@H](CCCCN)NC(=O)[C@H](CCCCN)NC(=O)[C@H](CO)NC(=O)[C@H](Cc2c[nH]cn2)NC(=O)[C@]2(C)CCCC=CCCC[C@](C)(NC(=O)CN)C(=O)NCC(=O)N[C@@H](CCCCN)C(=O)N[C@@H](Cc3ccccc3)C(=O)N2)CCCC=CCCC[C@@](C)(C(=O)N[C@@H](C)C(=O)N[C@@H](CC(N)=O)C(=O)N[C@@H](CO)C(N)=O)NC(=O)[C@H](CCC(=O)O)NC(=O)CNC1=O [Mag(i+4)1,15(A9K, B21A), GXGKFXHSKKKFGKAXVGEXANS] (H-G[S5]GKF[S5]HSKKKFGKA[S5]VGE[S5]ANS-NH2; staple 2-6, 16-20)","pRPTEC lysis (% LDH release) relative to Mag(i+4)1,15(A9K)","[1]; 24-hour incubation, FIG. 1",significantly attenuated pRPTEC lysis
same,MIC B cereus,B cereus,50 µg/mL
same,MIC E coli,E coli,6.2 µg/mL
same,MIC P aeruginosa,P aeruginosa,8.8 µg/mL
same,MIC S aureus,S aureus,>50 µg/mL
"CC(C)[C@@H]1NC(=O)[C@@](C)(NC(=O)[C@H](C)NC(=O)[C@H](CCCCN)NC(=O)CNC(=O)[C@H](Cc2ccccc2)NC(=O)[C@H](CCCCN)NC(=O)[C@H](CCCCN)NC(=O)[C@H](CCCCN)NC(=O)[C@H](CO)NC(=O)[C@H](Cc2c[nH]cn2)NC(=O)[C@]2(C)CCCC=CCCC[C@](C)(NC(=O)CN)C(=O)NCC(=O)N[C@@H](CCCCN)C(=O)N[C@@H](Cc3ccccc3)C(=O)N2)CCCC=CCCC[C@@](C)(C(=O)N[C@@H](C)C(=O)N[C@@H](CCCCN)C(=O)N[C@@H](CCCCN)C(N)=O)NC(=O)[C@H](CCC(=O)O)NC(=O)CNC1=O [Mag(i+4)1,15(A9K, B21A, N22K, S23K), GXGKFXHSKKKFGKAXVGEXAKK] (H-G[S5]GKF[S5]HSKKKFGKA[S5]VGE[S5]AKK-NH2; staple 2-6, 16-20)","pRPTEC lysis (% LDH release) compared to Mag(i+4)1,15(A9K)","[1]; 90 minute incubation, FIG. 2",markedly reduced lytic activity toward pRPTECs
same,"pRPTEC lysis (% LDH release), long-term lytic activity","[1]; 48 hours incubation, FIG. 3",lowered long-term lytic activity
same,MIC B cereus,B cereus,50 µg/mL
same,MIC E coli,E coli,1.6 µg/mL
same,MIC P aeruginosa,P aeruginosa,3.1 µg/mL
same,MIC A baumannii,A baumannii,0.8 µg/mL
same,MIC S aureus,S aureus,>50 µg/mL
"CCCC[C@H](NC(=O)[C@]1(C)CCCC=CCCC[C@](C)(NC(=O)[C@H](C)NC(=O)[C@H](CCCCN)NC(=O)CNC(=O)[C@H](Cc2ccccc2)NC(=O)[C@H](CCCCN)NC(=O)[C@H](CCCCN)NC(=O)[C@H](CCCCN)NC(=O)[C@H](CO)NC(=O)[C@]2(C)CCCC=CCCC[C@](C)(NC(=O)[C@@H](NC(=O)CN)[C@@H](C)CC)C(=O)N[C@@H](CCCCN)C(=O)N[C@@H](Cc3ccccc3)C(=O)N[C@@H](CC(C)C)C(=O)N2)C(=O)N[C@@H](C(C)C)C(=O)NCC(=O)N[C@@H](CCC(=O)O)C(=O)N1)C(=O)N[C@@H](CC(N)=O)C(=O)N[C@@H](CO)C(N)=O [Mag(i+4)2,15(A9K), GIXKFLXSKKKFGKAXVGEXBNS] (H-GI[S5]KFL[S5]SKKKFGKA[S5]VGE[S5][Nle]NS-NH2; staple 3-7, 16-20)",% Hemolysis at 25 μg/ml,[2],17.9%
same,Antimicrobial Activity MIC,[3],1.6 µg/mL
same,Antimicrobial Activity MIC,[4],1.6 µg/mL
same,Antimicrobial Activity MIC,[5]; [7],2.2 µg/mL
same,Antimicrobial Activity MIC,[5]; [8],3.1 µg/mL
"CC(C)C[C@H](NC(=O)[C@H](Cc1ccc(O)cc1)NC(=O)[C@H](Cc1c[nH]cn1)NC(=O)[C@@H](NC(=O)[C@H](CC(C)C)NC(=O)[C@]1(C)CCCC=CCCC[C@](C)(NC(=O)[C@H](Cc2c[nH]cn2)NC(=O)[C@H](CCCCN)NC(=O)CNC(=O)[C@@H](NC(=O)[C@H](Cc2c[nH]cn2)NC(=O)[C@H](C)NC(=O)[C@H](CCCCN)NC(=O)[C@H](CCCCN)NC(=O)[C@H](CCCCN)NC(=O)[C@]2(C)CCCC=CCCC[C@](C)(NC(=O)CN)C(=O)NCC(=O)N[C@@H](CO)C(=O)N[C@@H](Cc3ccccc3)C(=O)N2)C(C)C)C(=O)NCC(=O)N[C@@H](CCCCN)C(=O)N[C@@H](C)C(=O)N1)[C@@H](C)O)C(N)=O [Pleu(i+4)1,15(A9K), GXGSFXKKKAHVGKHXGKAXLTHYL] (H-G[S5]GSF[S5]KKKAHVGKH[S5]GKA[S5]LTHYL-NH2; staple 2-6, 16-20)",% Hemolysis at 25 μg/ml,[2],16.3%
same,Antimicrobial Activity MIC,[3],3.1 µg/mL
same,Antimicrobial Activity MIC,[4],3.1 µg/mL
same,Antimicrobial Activity MIC,[5]; [7],1.6 µg/mL
same,Antimicrobial Activity MIC,[5]; [8],1.6 µg/mL
"CC(C)C[C@H](NC(=O)[C@H](Cc1ccc(O)cc1)NC(=O)[C@H](Cc1c[nH]cn1)NC(=O)[C@@H](NC(=O)[C@H](CC(C)C)NC(=O)[C@]1(C)CCCC=CCCC[C@](C)(NC(=O)[C@H](Cc2c[nH]cn2)NC(=O)[C@H](CCCCN)NC(=O)CNC(=O)[C@@H](NC(=O)[C@H](Cc2c[nH]cn2)NC(=O)[C@H](C)NC(=O)[C@H](C)NC(=O)[C@H](CCCCN)NC(=O)[C@H](CCCCN)NC(=O)[C@]2(C)CCCC=CCCC[C@](C)(NC(=O)CN)C(=O)NCC(=O)N[C@@H](CO)C(=O)N[C@@H](Cc3ccccc3)C(=O)N2)C(C)C)C(=O)NCC(=O)N[C@@H](CCCCN)C(=O)N[C@@H](C)C(=O)N1)[C@@H](C)O)C(N)=O [Pleu(i+4)1,15, GXGSFXKKAAHVGKHXGKAXLTHYL] (H-G[S5]GSF[S5]KKAAHVGKH[S5]GKA[S5]LTHYL-NH2; staple 2-6, 16-20)",% Hemolysis at 25 μg/ml,[2],88.2%
same,Antimicrobial Activity MIC,[3],3.1 µg/mL
same,Antimicrobial Activity MIC,[4],3.1 µg/mL
Colistin [reference compound],Antimicrobial Activity MIC,[5]; [7],2.5 µg/mL
same,Antimicrobial Activity MIC,[5]; [8],1.2 µg/mL
same,Antimicrobial Activity MIC,[6]; A. baumannii CDC Bank# 275,1 µg/mL
same,Antimicrobial Activity MIC,[6]; A. baumannii CDC Bank# 276,2 µg/mL
same,Antimicrobial Activity MIC,[6]; A. baumannii CDC Bank# 277,1 µg/mL
same,Antimicrobial Activity MIC,[6]; A. baumannii CDC Bank# 278,1 µg/mL
same,Antimicrobial Activity MIC,[6]; A. baumannii CDC Bank# 279,1 µg/mL
same,Antimicrobial Activity MIC,[6]; A. baumannii CDC Bank# 280,1 µg/mL
same,Antimicrobial Activity MIC,[6]; A. baumannii CDC Bank# 281,1 µg/mL
same,Antimicrobial Activity MIC,[6]; A. baumannii CDC Bank# 282,0.5 µg/mL
same,Antimicrobial Activity MIC,[6]; A. baumannii CDC Bank# 283,1 µg/mL
same,Antimicrobial Activity MIC,[6]; A. baumannii CDC Bank# 284,1 µg/mL
same,Antimicrobial Activity MIC,[6]; A. baumannii CDC Bank# 285,1 µg/mL
same,Antimicrobial Activity MIC,[6]; A. baumannii CDC Bank# 286,0.5 µg/mL
same,Antimicrobial Activity MIC,[6]; A. baumannii CDC Bank# 287,1 µg/mL
same,Antimicrobial Activity MIC,[6]; A. baumannii CDC Bank# 288,>8 µg/mL
same,Antimicrobial Activity MIC,[6]; A. baumannii CDC Bank# 289,2 µg/mL
same,Antimicrobial Activity MIC,[6]; A. baumannii CDC Bank# 290,1 µg/mL
same,Antimicrobial Activity MIC,[6]; A. baumannii CDC Bank# 291,1 µg/mL
same,Antimicrobial Activity MIC,[6]; A. baumannii CDC Bank# 292,1 µg/mL
same,Antimicrobial Activity MIC,[6]; A. baumannii CDC Bank# 293,0.5 µg/mL
same,Antimicrobial Activity MIC,[6]; A. baumannii CDC Bank# 294,1 µg/mL
same,Antimicrobial Activity MIC,[6]; A. baumannii CDC Bank# 295,1 µg/mL
same,Antimicrobial Activity MIC,[6]; A. baumannii CDC Bank# 296,0.5 µg/mL
same,Antimicrobial Activity MIC,[6]; A. baumannii CDC Bank# 297,1 µg/mL
same,Antimicrobial Activity MIC,[6]; A. baumannii CDC Bank# 298,0.5 µg/mL
same,Antimicrobial Activity MIC,[6]; A. baumannii CDC Bank# 299,2 µg/mL
same,Antimicrobial Activity MIC,[6]; A. baumannii CDC Bank# 300,1 µg/mL
same,Antimicrobial Activity MIC,[6]; A. baumannii CDC Bank# 301,0.5 µg/mL
same,Antimicrobial Activity MIC,[6]; A. baumannii CDC Bank# 302,2 µg/mL
same,Antimicrobial Activity MIC,[6]; A. baumannii CDC Bank# 303,>8 µg/mL
same,Antimicrobial Activity MIC,[6]; A. baumannii CDC Bank# 304,4 µg/mL
same,Antimicrobial Activity MIC,[6]; A. baumannii CDC Bank# 305,1 µg/mL
same,Antimicrobial Activity MIC,[6]; A. baumannii CDC Bank# 306,1 µg/mL
same,Antimicrobial Activity MIC,[6]; A. baumannii CDC Bank# 307,>8 µg/mL
same,Antimicrobial Activity MIC,[6]; A. baumannii CDC Bank# 308,8 µg/mL
same,Antimicrobial Activity MIC,[6]; A. baumannii CDC Bank# 309,8 µg/mL
same,Antimicrobial Activity MIC,[6]; A. baumannii CDC Bank# 310,8 µg/mL
same,Antimicrobial Activity MIC,[6]; A. baumannii CDC Bank# 311,1 µg/mL
same,Antimicrobial Activity MIC,[6]; A. baumannii CDC Bank# 312,0.5 µg/mL
same,Antimicrobial Activity MIC,[6]; A. baumannii CDC Bank# 313,1 µg/mL
